Test results taken from PubChem BioAssay (NCI).
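Each compound was tested at five concentrations against cells in 96-well plates for 48 hours. The concentration for full growth arrest is given as TGI.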

Key:
Assay in all cases: NCI tumour cell line growth inhibition, 48 h
[1] = system: HCC-2998 colon
[2] = system: NCI-H522 lung
[3] = system: SNB-19 CNS
[4] = system: A498 renal
[5] = system: U251 CNS
[6] = system: BT-549 breast
[7] = system: IGROV1 ovarian
[8] = system: EKVX NSCLC
[9] = system: SF-539 CNS
[10] = system: CAKI-1 renal

SMILES | TGI [1] [µM] | TGI [2] [µM] | TGI [3] [µM] | TGI [4] [µM] | TGI [5] [µM] | TGI [6] [µM] | TGI [7] [µM] | TGI [8] [µM] | TGI [9] [µM] | TGI [10] [µM]
COC(=O)C1=C(O)C(C(=O)OC)C2CC(=O)CC1C2(C)C (stereo not drawn) | > 100 | > 100 | > 100 | > 100 | > 100 | > 100 | > 100 | > 100 | > 100 | > 100
CCOC(=O)c1c(C)n(Cc2ccc(Cl)cc2Cl)c2c1cc(O)c1[nH]c3c(c12)CCCC3 | 63 | 38.8 | 58 | 38.6 | > 100 | 41.3 | 75.2 | > 100 | 56.9 | 56.4
O=C(Nc1ccccc1F)c1cc2ccc(O)cc2oc1=Nc1cccc(F)c1 | 33.8 | > 100 | > 100 | 43.8 | 29.8 | 39.4 | 14.6 | 35.2 | 42.7 | 40.6
Cc1cc(C)nc(NS(=O)(=O)c2ccc(NC(=O)c3c4ccccc4nc4ccccc34)cc2)n1 | > 100 | > 100 | > 100 | > 100 | > 100 | > 100 | > 100 | > 100 | > 100 | > 100
N#Cc1c(-c2ccc(Cl)cc2)c2c(nn3c4ccc5ccccc5c4nnc23)[nH]c1=O | 8.87 | 3.56 | 24.2 | 3.69 | 5.38 | 2.92 | 4.06 | 27.1 | 3.96 | 8.5
COc1ccc(N2C(=O)C3c4[nH]c5ccc(OCc6ccccc6)cc5c4C4CCC(c5ccccc5)CC4C3C2=O)cc1 (stereo not drawn) | > 100 | > 44.6 | 40.1 | 50.4 | 11.2 | 17 | > 74.3 | 38.2 | 7.17 | 25.8
CC(C)/C(Cl)=N/OC(=O)Nc1ccc(Br)cc1 | 29.4 | 2.97 | 44.1 | 33.8 | 37.3 | 9.19 | 27.1 | 4.37 | 29.1 | 3.2
O=C(O)CN(CC(=O)O)C1CCCCC1N1CC(=O)OC(=O)C1 (stereo not drawn) | > 100 | > 100 | > 100 | > 100 | > 100 | > 100 | > 100 | > 100 | > 100 | > 100
O=c1[nH]c(Nc2ccccc2)nc2c1ncn2CC(O)CSCCO (stereo not drawn) | > 100 | > 100 | > 100 | > 100 | > 100 | > 100 | > 100 | > 100 | > 100 | > 100
CC(=O)Nc1ccc2c(C)c3c(nc2n1)[nH]c1ccccc13 | 76.1 | 53.2 |  | > 100 | > 100 | 80.2 | 71.4 | 98.1 | > 100 | 96.2
OC1[C@@H]2[C@@H](O)CCCN2C[C@@H](O)[C@H]1O (stereo partly drawn) | > 100 | > 100 | > 100 | > 100 | > 100 | > 100 | > 100 | > 100 | > 100 | > 100
Nc1n(CC(=O)c2ccccc2)nc2sc(-c3ccccc3)n[n+]12 | 25 | 34.4 | > 100 | 86.9 | 34.2 | > 100 | 56.6 | > 100 | 25.3 | 91.7
COC(=O)[C@H]1C=NN[C@@H]1C(=O)N1[C@H]2CC3CC[C@@]2(CS1(=O)=O)C3(C)C | > 100 | > 100 | > 100 | > 100 | > 100 | > 100 | > 100 | > 100 | > 100 | > 100
COc1cccc(N2C(=O)CSC2c2cccc(Oc3ccccc3)c2)c1 (stereo not drawn) | 7.23 | 20.6 | > 100 | 9.33 | 19.3 | 45.6 |  | 61.4 | 15.9 | 14.3
